Test results published in patent US9115127B2 (AMGEN INC., priority 2010, dated 2015).
Structures can show the parent of a compound that is named as a salt.

Molecular target: T1, wild-type human ALK (cytoplasmic domain, amino acids 1058-1620, N-terminal GST fusion) (Homo sapiens, UniProt Q9UM73)
T1 construct: The cytoplasmic domain (amino acids 1058-1620) of wild-type human ALK; GST (N); made in house; host or cells: SF9 insect cells
Test: ALK Inhibition in Enzyme Assay (Lance TR-FRET kinase assay)
Type: biochemical
Method: ALK Inhibition in Enzyme Assay
Kinase activity of the purified protein was assessed using a Lance® TR-FRET assay. […] The reaction was allowed to proceed for 90 minutes at room temperature and was then terminated with 20 mM EDTA in 50 mM Tris (pH 7.5), 100 mM NaCl, 0.05% BSA, and 0.1% Tween-20. Phosphorylation of the peptide substrate was detected using the Lance® detection reagents streptavidin-allophycocyanin (SA-APC) and Eu-W1024 anti-phosphotyrosine antibody (PT66) from Perkin Elmer Life Sciences (Waltham, Mass.). The plates were read on a RUBY star plate reader (BMG LABTECH, Cary, N.C.) with an excitation wavelength of 320 nm.

T1 sequence (Q9UM73 1058-1620): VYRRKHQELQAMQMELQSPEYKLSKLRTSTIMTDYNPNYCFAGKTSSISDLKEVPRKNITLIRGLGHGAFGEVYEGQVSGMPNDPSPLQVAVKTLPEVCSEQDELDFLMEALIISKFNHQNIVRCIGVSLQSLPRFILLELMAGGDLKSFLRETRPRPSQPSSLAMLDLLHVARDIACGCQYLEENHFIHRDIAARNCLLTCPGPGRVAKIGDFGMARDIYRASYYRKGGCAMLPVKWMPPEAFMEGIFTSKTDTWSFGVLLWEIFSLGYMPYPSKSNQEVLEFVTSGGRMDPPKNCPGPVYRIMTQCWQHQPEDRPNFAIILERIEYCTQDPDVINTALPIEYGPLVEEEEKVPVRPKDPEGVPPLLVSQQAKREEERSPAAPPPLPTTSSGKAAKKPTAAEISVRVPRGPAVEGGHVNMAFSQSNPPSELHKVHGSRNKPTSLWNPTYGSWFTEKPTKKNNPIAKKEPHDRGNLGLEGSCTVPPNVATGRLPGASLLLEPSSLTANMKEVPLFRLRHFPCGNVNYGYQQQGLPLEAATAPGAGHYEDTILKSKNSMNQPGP

SMILES	IC50 [nM]
CC(C)(O)C1CCN(CCOc2cc3c(cn2)[nH]/c(=N\C(=O)c2cccc(F)c2)n3[C@H]2CC[C@@H](C(=O)N3C[C@@H]4C[C@H]3CN4)CC2)CC1 (relative stereo) [Example 84, (E)-N-(1-(cis-4-(cis-2,5-Diazabicyclo[2.2.1]heptane-2-carbonyl)cyclohexyl)-6-(2-(4-(2-hydroxypropan-2-yl)piperidin-1-yl)ethoxy)-1H-imidazo[4,5-c]pyridin-2(3H)-ylidene)-3-fluorobenzamide]	100 to 1000
COC(=O)[C@H]1CC[C@@H](n2/c(=N/C(=O)c3ccccc3)[nH]c3cnccc32)CC1 [Example 1, cis-Methyl 4-((E)-2-(benzoylimino)-2,3-dihydro-1H-imidazo[4,5-c]pyridin-1-yl)cyclohexanecarboxylate]	100 to 1000
COC(=O)[C@H]1CC[C@@H](n2/c(=N/C(=O)c3ccc(F)cc3)[nH]c3ccc(CO)cc32)CC1 [Example 2]	< 50
COC(=O)[C@H]1CC[C@@H](n2c(NC(=O)c3ccccc3)nc3ccc(CO)cc32)CC1 [Example 4, cis-Methyl 4-(2-benzamido-6-(hydroxymethyl)-1H-benzo[d]imidazol-1-yl)cyclohexanecarboxylate]	< 50
CCOC(=O)[C@H]1CC[C@@H](n2/c(=N/C(=O)c3ccccc3)[nH]c3ccc(CO)cc32)CC1 [Example 7, cis-Ethyl 4-((E)-2-(benzoylimino)-6-(hydroxymethyl)-2,3-dihydro-1H-benzo[d]imidazol-1-yl)cyclohexanecarboxylate]	< 50
CCNC(=O)[C@H]1CC[C@@H](n2/c(=N/C(=O)c3ccc(F)cc3)[nH]c3ccc(CN4CCCCC4)cc32)CC1 [Example 11, (E)-N-(1-(cis-4-(Ethylcarbamoyl)cyclohexyl)-6-(piperidin-1-ylmethyl)-1H-benzo[d]imidazol-2(3H)-ylidene)-4-fluorobenzamide]	< 50
COC(=O)[C@H]1CC[C@@H](n2/c(=N/C(=O)c3cccc(C(F)(F)F)c3)[nH]c3ccc(CO)cc32)CC1 [Example 12, cis-Methyl 4-((E)-6-(hydroxymethyl)-2-(3-(trifluoromethyl)benzoylimino)-2,3-dihydro-1H-benzo[d]imidazol-1-yl)cyclohexanecarboxyl]	100 to 1000
O=C(Nc1nc2ccc(CO)cc2n1C12CC3CC(CC(C3)C1)C2)c1ccccc1 [Example 13, N-(1-adamantyl-6-(hydroxymethyl)-1H-benzo[d]imidazol-2-yl)benzamide]	100 to 1000
CNC(=O)[C@H]1CC[C@@H](n2/c(=N/C(=O)c3ccc(F)cc3)[nH]c3ccc(CN4CCCCC4)cc32)CC1 [Example 15, (E)-N-(1-(cis-4-(Methylcarbamoyl)cyclohexyl)-6-(piperidin-1-ylmethyl)-1H-benzo[d]imidazol-2(3H)-ylidene)-4-fluorobenzamide]	< 50
O=C(/N=c1\[nH]c2ccc(CN3CCCCC3)cc2n1C12CC3CC(CC(C3)C1)C2)c1ccccc1 [Example 16]	50 to 100
C=CCNS(=O)(=O)c1cccc(C(=O)/N=c2\[nH]c3ccc(CO)cc3n2C23CC4CC(CC(C4)C2)C3)c1 [Example 17, (E)-3-(N-Allylsulfamoyl)-N-(1-adamantyl-6-(hydroxymethyl)-1H-benzo[d]imidazol-2(3H)-ylidene)benzamide]	< 50
C=CCNS(=O)(=O)c1cccc(C(=O)Nc2nc3ccc(CN4CCCCC4)cc3n2C23CC4CC(CC(C4)C2)C3)c1 [Example 18, 3-(N-Allylsulfamoyl)-N-(1-adamantyl-6-(piperidin-1-ylmethyl)-1H-benzo[d]imidazol-2-yl)benzamide]	< 50
COC(=O)[C@H]1CC[C@@H](n2c(NC(=O)c3ccccc3)nc3ccc(CN4C(C)(C)CCCC4(C)C)cc32)CC1 [Example 19, cis-Methyl 4-(2-benzamido-6-((2,2,6,6-tetramethylpiperidin-1-yl)methyl)-1H-benzo[d]imidazol-1-yl)cyclohexanecarboxylate]	< 50
COC(=O)[C@H]1CC[C@@H](n2/c(=N/C(=O)c3ccccc3)[nH]c3cnc(OCCN4CCCCC4)cc32)CC1 [Example 20, cis-Methyl 4-((E)-2-(benzoylimino)-6-(2-(piperidin-1-yl)ethoxy)-2,3-dihydro-1H-imidazo[4,5-c]pyridin-1-yl)cyclohexanecarboxylate]	< 50
O=C(/N=c1\[nH]c2cnc(OCCN3CCCCC3)cc2n1[C@H]1CC[C@@H](C(=O)O)CC1)c1ccccc1 [Example 25, cis-4-((E)-2-(Benzoylimino)-6-(2-(piperidin-1-yl)ethoxy)-2,3-dihydro-1H-imidazo[4,5-c]pyridin-1-yl)cyclohexanecarboxylic acid]	1000 to 5000
CCNC(=O)[C@H]1CC[C@@H](n2/c(=N/C(=O)c3ccccc3)[nH]c3cnc(OCCN4CCCCC4)cc32)CC1 [Example 26]	< 50
C=CCNS(=O)(=O)c1cc(C(=O)Nc2nc3ccc(CO)cc3n2[C@H]2CC[C@@H](C(=O)OC)CC2)ccc1F [Example 27, cis-Methyl 4-(2-(3-(N-allylsulfamoyl)-4-fluorobenzamido)-6-(hydroxymethyl)-1H-benzo[d]imidazol-1-yl)cyclohexanecarboxylate]	100 to 1000
COCCCNS(=O)(=O)c1cc(C(=O)Nc2nc3ccc(CO)cc3n2[C@H]2CC[C@@H](C(=O)OC)CC2)ccc1F [Example 28, cis-Methyl 4-(2-(4-fluoro-3-(N-(3-methoxypropyl)sulfamoyl)benzamido)-6-(hydroxymethyl)-1H-benzo[d]imidazol-1-yl)cyclohexanecarboxylate]	100 to 1000
O=C(/N=c1\[nH]c2ccc(CN3CCCCC3)cc2n1[C@H]1CC[C@@H](C(=O)NC2CC2)CC1)c1ccc(F)cc1 [Example 31, (E)-N-(1-(cis-4-(Cyclopropylcarbamoyl)cyclohexyl)-6-(piperidin-1-ylmethyl)-1H-benzo[d]imidazol-2(3H)-ylidene)-4-fluorobenzamide]	< 50
O=C(/N=c1\[nH]c2ccc(CN3CCCCC3)cc2n1[C@H]1CC[C@@H](C(=O)NCC2CC2)CC1)c1ccc(F)cc1 [Example 32, (E)-N-(1-(cis-4-(Cyclopropylmethylcarbamoyl)cyclohexyl)-6-(piperidin-1-ylmethyl)-1H-benzo[d]imidazol-2(3H)-ylidene)-4-fluorobenzamide]	< 50
CC(C)CNC(=O)[C@H]1CC[C@@H](n2/c(=N/C(=O)c3ccc(F)cc3)[nH]c3ccc(CN4CCCCC4)cc32)CC1 [Example 35, (E)-4-Fluoro-N-(1-(cis-4-(isobutylcarbamoyl)cyclohexyl)-6-(piperidin-1-ylmethyl)-1H-benzo[d]imidazol-2(3H)-ylidene)benzamide]	< 50

Continued, values first:

IC50 [nM]	SMILES
< 50	COC(=O)[C@H]1CC[C@@H](n2c(NC(=O)c3ccc(F)cc3)nc3ccc(CN4CCCCC4)cc32)CC1 [Example 3, cis-Methyl 4-(2-(4-fluorobenzoylimino)-6-(piperidin-1-ylmethyl)-2,3-dihydro-1H-benzo[d]imidazol-1-yl)cyclohexanecarboxylate]
< 50	COC(=O)[C@H]1CC[C@@H](n2c(NC(=O)c3ccccc3)nc3ccc(CN4CCOCC4)cc32)CC1 [Example 5, cis-Methyl 4-(2-benzamido-6-(morpholinomethyl)-1H-benzo[d]imidazol-1-yl)cyclohexanecarboxylate]
< 50	CCOC(=O)[C@H]1CC[C@@H](n2c(NC(=O)c3ccc(F)cc3)nc3ccc(CO)cc32)CC1 [Example 6, cis-Ethyl 4-(2-(4-fluorobenzamido)-6-(hydroxymethyl)-1H-benzo[D]imidazol-1-yl)cyclohexanecarboxylate]
< 50	CCOC(=O)[C@H]1CC[C@@H](n2/c(=N/C(=O)c3ccc(F)cc3)[nH]c3ccc(CN4CCCCC4)cc32)CC1 [Example 8, cis-Ethyl 4-((E)-2-(4-fluorobenzoylimino)-6-(piperidin-1-ylmethyl)-2,3-dihydro-1H-benzo[d]imidazol-1-yl)cyclohexanecarboxylate]
100 to 1000	O=C(Nc1nc2ccc(CN3CCCCC3)cc2n1[C@H]1CC[C@@H](C(=O)O)CC1)c1ccc(F)cc1 [Example 10, cis-4-(2-(4-Fluorobenzamido)-6-(piperidin-1-ylmethyl)-1H-benzo[d]imidazol-1-yl)cyclohexanecarboxylic acid hydrochloride]
< 50	COC(=O)[C@H]1CC[C@@H](n2c(NC(=O)c3cccc(C(F)(F)F)c3)nc3ccc(CN4CCCCC4)cc32)CC1 [Example 14, cis-Methyl 4-(6-(piperidin-1-ylmethyl)-2-(3-(trifluoromethyl)benzamido)-1H-benzo[d]imidazol-1-yl)cyclohexanecarboxylate]
< 50	CC(C)(C)NC(=O)[C@H]1CC[C@@H](n2c(NC(=O)c3ccccc3)nc3ccc(CN4CCCCC4)cc32)CC1 [Example 29, N-(1-(cis-4-(tert-Butylcarbamoyl)cyclohexyl)-6-(piperidin-1-ylmethyl)-1H-benzo[d]imidazol-2-yl)benzamide]
< 50	C=CCNS(=O)(=O)c1cc(C(=O)Nc2nc3ccc(CN4CCCCC4)cc3n2[C@H]2CC[C@@H](C(=O)OC)CC2)ccc1F [Example 33, cis-Methyl 4-(2-(3-(N-allylsulfamoyl)-4-fluorobenzamido)-6-(piperidin-1-ylmethyl)-1H-benzo[d]imidazol-1-yl)cyclohexanecarboxylate]
100 to 1000	C=CCNS(=O)(=O)c1cc(C(=O)Nc2nc3ccc(CN4CCCCC4)cc3n2[C@H]2CC[C@@H](C(=O)O)CC2)ccc1F [Example 34, cis-4-(2-(3-(N-Allylsulfamoyl)-4-fluorobenzamido)-6-(piperidin-1-ylmethyl)-1H-benzo[d]imidazol-1-yl)cyclohexanecarboxylic acid]
